Where two headings read alike, the source gives them in different places.
Tests used:
[1] = Pharmacokinetics / bioavailability in rats; format: in vivo; details: rats; for half-life: read-out: t1/2 terminal elimination (converted); for Cmax: read-out: Cmax [μmol/L ± SE]
Description: The higher water solubility of the phosphate salt compared to the free base (and other acid salts, as described above) led to the development of a solution formulation (or composition), which would not be feasible with the free base due to solubility restrictions. For this experiment, the phosphate salt was prepared as follows. In a glass vial, 10.7 mg of the free base was dissolved in 4 ml THF. Phosphoric acid (1.76 ml) in acetone (0.01M) was added. The mixture was warmed to 50° C. for about 2 minutes. The vial was left open for partial evaporation at room temperature. Overnight, a suspension was formed, which was filtered yielding about 5.5 mg of an off-white powder. The bioavailabilities, in rats, of the active agents (the free base and its phosphate salt), formulated variously, are tabulated below (Table 10).

[2] = Intrinsic dissolution rate; format: physicochemical; details: 37° C., disc 200 rpm, 290 nm, listed as Anhydrous Free Base
Description: The intrinsic dissolution rate measurements were carried out in 0.5 cm^2 VanKel punch and die assemblies at a pellet pressure of 2000 pounds. […]
The intrinsic dissolution rate was determined for the phosphate salt in water, pH=6.8 and 0.1N HCl, and for the free base monohydrate in pH=6.8, 4.5 and 0.1N HCl. The measurements were carried out on a VanKel instrument using a Cary UV/VIS spectrophotometer (Table 2).

Solution stability = format: physicochemical; details: 1 week at 50° C.
Description: The solution stability of the free base was tested in buffers ranging from pH 1 to pH 9 for 1 week at 50° C. At pH 5 and higher, the free base was stable, and after accounting for minor initial impurities, degradation was less than 2%. At pH 3, degradation was about 4% and at pH 1, degradation was about 15%. The stability was also tested in water and several organic solvents (1 week at 50° C.).
Without being bound by mechanism, the stability difference between the free base and phosphate salt may be due to the higher aqueous solubility of the phosphate salt compared to the free base, as well as the tendency of the phosphate salt to cause the pH of water to decrease, which may increase the rate of degradation.

Solid state stability = format: physicochemical; details: one week at 80° C., sealed containers and 75% relative humidity, alone and with excipients as 1% mixture, listed as anhydrous free base
Description: In the solid state, the samples were stressed for one week at 80° C., in sealed containers and under 75% relative humidity. […] The amount of degradation products of the anhydrous free base as assessed by HPLC was 1% or less (based on peak area), while the degradation of the phosphate salt accounted for 1.4% or less.

[3] = Polymorphic stability by XRPD (equilibration, crystallization, evaporation, precipitation, compression, granulation); format: physicochemical; details: room temperature; water, ethanol, isopropanol, ethyl acetate, acetone
Description: Slurries of samples were stirred at high speed for 24 hours at 25±0.5° C., filtered, and the solid collected analyzed by XRPD.
About 20 mg of the phosphate salt (form A) was equilibrated with 2 ml of a variety of solvents for at least 24 h at room temperature. Then the solution was filtered and the residue dried overnight at 50° C. under house vacuum. The solid obtained was investigated by XRPD. […]
About 20 mg of the phosphate salt (form A) was also equilibrated at about 50° C. with 2 ml solvent for at least 24 h. Then the solution was filtered and the residue dried overnight at 50° C. under house vacuum. The solid obtained was investigated by XRPD.
About 20 mg of the phosphate salt (form A) was dissolved in 2 ml solvent at 60° C. The solution was filtered. The clear filtrate obtained was cooled in an ice bath and agitated. The precipitate was collected on a filter, dried and investigated by XRPD.
About 20 mg of the phosphate salt (form A) was mixed with 2 ml solvent at 25° C. After stirring overnight, the solution was filtered. The filtrate was placed under nitrogen flow to evaporate the solvent. The residual solid was collected and investigated. The above evaporation was performed without stirring. Upon evaporation from THF/water (1:1) without stirring, a solid with XRPD pattern similar to that of the B form (see FIG. 1C), was obtained once. Subsequently, under these conditions, amorphous material, rather than form B, was obtained.
The same experiments (as described above for the 25° C. evaporation) were performed at 50° C.
Two different solvent combinations were tested. The phosphate salt (form A) was dissolved in DMSO where its solubility was high. A solvent (the anti-solvent) in which the form A was highly insoluble was added to the solution. The precipitate was collected on a filter, dried, and investigated by XRPD.
The phosphate salt (form A, 300 mg) was compressed for 5 minutes at 4000 pounds with a hydraulic press (diameter of the tablets 8 mm).
A solvent (water or ethanol) was added drop wise to the phosphate salt (form A) placed in a mortar until the solid in the mortar was sufficiently wet, and ground using a pestle until a paste-like consistency was obtained. The paste was dried at around 40° C. and under reduced pressure for >8 hours.

[4] = rat, in vivo, iv, 5 mg/kg, i.v. [5 mg/kg]
[5] = rat, in vivo, po, 8.57 mg/kg, free base p.o., suspension (water containing 0.5% HPMC) [8.57 mg/kg]
[6] = rat, in vivo, po, 10 mg/kg, colloidal solution (water, ethanol and cremophor EL) [10 mg/kg]
[7] = rat, in vivo, po, 10 mg/kg, p.o., colloidal solution (water, ethanol and cremophor EL) [10 mg/kg]
[8] = free base p.o., suspension (water containing 0.5% HPMC) [8.57 mg/kg]
[9] = p.o., colloidal solution (water, ethanol and cremophor EL) [10 mg/kg]

- AUC(0-inf) [1, 4]: 2.47 µM·h
- concentration at 5 min ([1]; rat, in vivo, iv, 5 mg/kg, i.v. [5 mg/kg], read-out: C5 min [μmol/L ± SE]): 0.972 ± 0.404 µmol/L
- concentration at 24 h ([1]; rat, in vivo, iv, 5 mg/kg, i.v. [5 mg/kg], read-out: Clast [μmol/L ± SE]): 0.003 ± 0.003 µmol/L
- half-life [1, 4]: 4.5 h
- clearance ([1]; rat, in vivo, iv, i.v. [5 mg/kg]): 60 mL/min/kg
- Vd ([1]; rat, in vivo, iv, i.v. [5 mg/kg], read-out: Vss): 9.6 L/kg
- AUC(0-inf) [1, 5]: 1.55 µM·h
- Tmax [1, 5]: 2 h
- concentration at 8 h ([1]; rat, in vivo, po, 8.57 mg/kg, free base p.o., suspension (water containing 0.5% HPMC) [8.57 mg/kg], read-out: Clast [μmol/L ± SE]): 0.077 ± 0.038 µmol/L
- Cmax [1, 5]: 0.202 ± 0.021 µmol/L
- half-life [1, 5]: 4.3 h
- AUC(0-inf) [1, 6]: 1.44 µM·h
- Tmax [1, 6]: 3 h
- concentration at 24 h ([1]; rat, in vivo, po, 10 mg/kg, p.o., colloidal solution (water, ethanol and cremophor EL) [10 mg/kg], read-out: Clast [μmol/L ± SE]): 0.01 ± 0.005 µmol/L
- Cmax [1, 7]: 0.154 ± 0.026 µmol/L
- half-life [1, 7]: 5.2 h
- AUC (0-∞) dose ^A [(h · μmol/L)/(mg/kg)] [1, 8]: 0.18 (h · μmol/L)/(mg/kg)
- BAV f [%] [1, 8]: 37 ± 11%
- tlast [1, 8]: 8 h
- AUC (0-∞) dose ^A [(h · μmol/L)/(mg/kg)] ([1]; i.v. [5 mg/kg]): 0.49 (h · μmol/L)/(mg/kg)
- tlast ([1]; i.v. [5 mg/kg]): 24 h
- AUC (0-∞) dose ^A [(h · μmol/L)/(mg/kg)] [1, 9]: 0.14 (h · μmol/L)/(mg/kg)
- BAV f [%] [1, 9]: 29%
- tlast [1, 9]: 24 h
- Intrinsic DR value ([2]; HCl 0.1N): 0.28 mg/min/cm^2
- Intrinsic DR value ([2]; Water): 0.01 mg/min/cm^2
- degradation in solution (Solution stability; 1:1 acetonitrile/water, listed as free base): about 8%
- degradation in solution (Solution stability; buffer pH 1): about 15%
- degradation in solution (Solution stability; buffer pH 3): about 4%
- degradation in solution (Solution stability; buffers pH 5 and higher): less than 2%
- degradation in solution (Solution stability; isopropanol): stable
- degradation in solution (Solution stability; water, listed as free base): stable
- amount of degradation products by HPLC (peak area) (Solid state stability): ≤ 1%
- XRPD after equilibration with solvents [3]: No new XRPD pattern was observed
SMILES: CCN1CCN(c2ccc(Nc3cc(N(C)C(=O)Nc4c(Cl)c(OC)cc(OC)c4Cl)ncn3)cc2)CC1 [Free Base, 3-(2,6-Dichloro-3,5-dimethoxy-phenyl)-1-{6-[4-(4-ethyl-piperazin-1-yl)-phenylamino]-pyrimidin-4-yl}-1-methyl-urea]
